# BindingDB's records for doi:10.1016/j.bmcl.2014.09.001 (University of Pittsburgh, 2014)
# Legend:
# [1] = target: T1, Signal transducer and activator of transcription 1-alpha/beta (Homo sapiens, UniProt P42224); assay: Inhibition of IFNgamma-induced STAT1 phosphorylation in human Cal33 cells by Western blot analysis
# T1 sequence (P42224 whole entry): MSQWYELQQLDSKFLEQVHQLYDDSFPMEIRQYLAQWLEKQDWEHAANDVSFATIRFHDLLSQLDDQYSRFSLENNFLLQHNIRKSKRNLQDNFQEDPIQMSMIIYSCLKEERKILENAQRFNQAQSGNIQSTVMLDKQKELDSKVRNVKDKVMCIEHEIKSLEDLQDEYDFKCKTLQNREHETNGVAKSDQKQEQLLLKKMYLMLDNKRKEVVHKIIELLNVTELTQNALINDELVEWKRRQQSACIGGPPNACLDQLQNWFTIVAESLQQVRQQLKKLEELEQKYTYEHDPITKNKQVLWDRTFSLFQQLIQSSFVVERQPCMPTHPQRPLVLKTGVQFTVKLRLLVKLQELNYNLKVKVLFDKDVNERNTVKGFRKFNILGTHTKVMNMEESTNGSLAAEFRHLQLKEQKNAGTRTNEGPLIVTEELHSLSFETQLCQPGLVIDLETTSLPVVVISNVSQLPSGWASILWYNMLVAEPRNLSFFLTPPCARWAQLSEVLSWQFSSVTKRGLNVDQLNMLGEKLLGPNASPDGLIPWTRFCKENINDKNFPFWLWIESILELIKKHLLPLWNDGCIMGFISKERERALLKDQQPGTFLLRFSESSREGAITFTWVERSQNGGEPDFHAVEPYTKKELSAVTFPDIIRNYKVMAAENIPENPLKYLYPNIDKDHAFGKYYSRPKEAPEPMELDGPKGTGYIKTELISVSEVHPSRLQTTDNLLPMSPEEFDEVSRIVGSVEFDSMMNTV
# [2] = Inhibition of IL-6-induced STAT3 phosphorylation in human Cal33 cells assessed as nuclear translocation by Western blot analysis
SMILES,IC50 [1] [µM],IC50 [2] [µM]
COc1ccc2c(C)nc(Nc3nc(C)cc(O)n3)nc2c1,> 50,–
Cc1nc(NCc2ccccc2)nc2ccccc12,> 30,> 30
Cc1nc(NCCc2c[nH]c3ccccc23)nc2ccccc12,> 30,> 30
CC1=CC(C)(C)N=C(Nc2nc(C)c3cc(C)ccc3n2)N1,> 50,–
Cc1nc(Nc2ccccc2)nc2ccccc12,> 30,–
CCOc1ccc2nc(NC3=NC(C)=CC(C)(C)N3)nc(C)c2c1,> 50,–
Cc1cc2nc(Nc3nc(=O)c(C)c(C)[nH]3)nc(C)c2cc1C,> 50,10.4
Cc1cc(=O)nc(Nc2nc(C)c3cc4c(cc3n2)OCO4)[nH]1,> 50,> 50
Cc1ccc2c(C)nc(Nc3nc(=O)c(C)c(C)[nH]3)nc2c1,35.2,–
Cc1cc(=O)nc(Nc2nc(C)c3cc(C)c(C)cc3n2)[nH]1,> 50,–
COc1ccc2nc(Nc3nc(=O)c(Cc4ccccc4)c(C)[nH]3)nc(C)c2c1,50,–
Cc1ccc2c(C)nc(Nc3nc(=O)cc(C)[nH]3)nc2c1,39.7,–
Cc1nc(NCCN2CCOCC2)nc2ccccc12,> 30,> 30
Cc1nc(NCc2ccc3c(c2)OCO3)nc2ccccc12,> 30,> 30
COc1ccc2nc(Nc3nc(=O)cc(C)[nH]3)nc(C)c2c1,> 50,34.9
Cc1[nH]c(Nc2nc(C)c3cc4c(cc3n2)OCO4)nc(=O)c1Cc1ccccc1,> 50,> 50
Cc1[nH]c(Nc2nc(C)c3cc4c(cc3n2)OCO4)nc(=O)c1C,> 50,> 50
Cc1nc(Nc2nc(=O)cc(-c3ccccc3)[nH]2)nc2cc3c(cc12)OCO3,> 50,13
C=CCc1c(C)[nH]c(Nc2nc(C)c3cc(C)cc(C)c3n2)nc1=O,> 50,–
Cc1cc(C)c2nc(Nc3nc(=O)cc(-c4ccccc4)[nH]3)nc(C)c2c1,> 50,–
Cc1nc(NC2CCCCC2)nc2ccccc12,> 30,–
Cc1nc(Nc2ccccn2)nc2ccccc12,> 30,–
Cc1ccc(CNc2nc(C)c3ccccc3n2)o1,> 30,–
Cc1nc(NCc2cccc3ccccc23)nc2ccccc12,> 30,–
Cc1cc(C)c2nc(Nc3nc(C)c(C)c(O)n3)nc(C)c2c1,> 50,6.4
CCOc1ccc2nc(Nc3nc(=O)cc(-c4ccccc4)[nH]3)nc(C)c2c1,> 50,–
CCOc1ccc2nc(Nc3nc(=O)cc(C)[nH]3)nc(C)c2c1,> 50,–
CCOc1ccc2nc(Nc3nc(=O)c(C)c(C)[nH]3)nc(C)c2c1,> 50,–
CCOc1ccc2c(C)nc(NC3=NC(C)=CC(C)(C)N3)nc2c1 [DNDI1417388],> 50,–
"CC1=CC(C)(C)N=C(Nc2nc(C)c3cc(C)cc(C)c3n2)N1 [US9211296, Table 7, Compd: 9]",5.9,–
